Experimental data: PMC11325505, “Nitrogen-Containing Flavonoids—Preparation and Biological Activity” (ACS Omega, 2024)
Values after ≈ are worked out from the molar mass of the structure shown. Where two headings read alike, the source gives them in different places.

Key:
[1] = tested on: transmembrane efflux pumps; test: Ethidium bromide accumulation assay; format: cell-based, S. aureus MSSA 2; conditions: compared with comparator CCCP; concentrations 25–100 μM
Description: The application of antibiotics often leads to oxidative stress in bacteria, which triggers the efflux pump systems that contribute to antimicrobial resistance.[34] Therefore, modulation of the efflux system has been proposed as another plausible target of derivatives. The efflux pump inhibitor carbonyl cyanide 3-chlorophenylhydrazone (CCCP) was used as a comparator in our assay. Its action destroys the proton-motive force at the membrane so that the efflux pump cannot transport substrates out of the cell. One such universal substrate is ethidium bromide, the accumulation of which in the cell can be measured using fluorescence.
The accumulation assay was performed according to previously published methods with minor modifications.[15],[42] Briefly, a bacterial culture of S. aureus MSSA 2 cultured overnight in the presence of colistin (4 mg/L) to induce oxidative stress and activate efflux system[34] was diluted in PBS to OD600 nm = 0.6. The suspension was centrifuged (13,000 × g; 3 min), resuspended in fresh PBS, and distributed into the wells of a black 96-well microtiter plate (ThermoFisher Scientific). Samples were diluted with EtBr solution (4 μg/mL). 50 μL of the mixture was added to 50 μL of the bacterial suspension. The reaction was monitored using SpectraMax iD5Multi-Mode Microplate Reader (ex/em = 530/600 nm) every 60 s for 60 min.

[2] = tested on: human dermal fibroblasts (HDF); test: Cytotoxicity (resazurin assay), fibroblasts; format: cell-based; conditions: 72 h incubation, resazurin, average of three repetitions ± SEM, read-out: HDF IC50 (concentration that halved the viability)
Method: (§1) The cytotoxicity of the prepared derivatives was evaluated by their ability to decrease the viability of immortalized human keratinocytes (HaCaT) and human dermal fibroblasts (HDF).
(§2) 100 μL of cell suspension containing 10^5 cells/mL was pipetted into a 96-well plate. After 24 h incubation, the tested compounds were added in the concentration range 12.5–200 μM. After 72 h incubation, the cell viability was tested by standard resazurin assay.[41] Briefly, the cells were washed with PBS and incubated with 100 μL of resazurin solution (0.025 mg/mL) for 2 h. The fluorescence was measured at a wavelength of 560 nm excitation/590 nm emission.

[3] = tested on: immortalized human keratinocytes (HaCaT); test: Cytotoxicity (resazurin assay), keratinocytes; format: cell-based; conditions: 72 h incubation, resazurin, average of three repetitions ± SEM, read-out: HaCaT IC50 (concentration that halved the viability)
Method: as §1, §2

[4] = tested on: S. aureus MRSA 9; test: Antibacterial activity, multidrug-resistant strain; format: cell-based; conditions: for effect of the antibiotic alone on the multidrug-resistant clinical strain: breakpoint concentrations (1 mg/L); for IC50: Staphylococcus aureus, MRSA, multidrug-resistant strain, three repetitions ± SEM
Method: (§3) To evaluate the ability to modulate bacterial resistance, the tested flavonoids themselves cannot exert antimicrobial activity; therefore, the nontoxic concentration was used, as indicated in Table S5. Clinically relevant antibiotics were selected at breakpoint concentrations for susceptibility testing according to the European Committee on Antimicrobial Susceptibility Testing (EUCAST, version 11.0). […] Flavonoids and their derivatives (from 1 μM to the highest nontoxic concentration) were used in combination with the breakpoint concentration of the antibiotics. After coincubation, the minimum inhibitory concentration (MIC) of flavonoids inhibiting the visible growth of bacteria was determined (Table 2).
(§4) Sensitization of multidrug-resistant clinical bacterial strains was performed according to ref[15]. Antibiotic cutoff concentration was chosen according to the European Committee on Antimicrobial Susceptibility Testing (EUCAST, Clinical breakpoints–bacteria, ver. 11.0). The 200 μM concentration of the derivatives was chosen as the highest test concentration. The absorbance detected at 600 nm was then used to estimate the number of viable cells after 24 h of incubation at 37 °C and 120 rpm.
(§5) Experiments were performed with the respective number of replicates indicated in each figure/table. MIC was determined as IC70. Both IC70 and IC50 values were calculated using the following nonlinear regression in the software GraphPad Prism: […]

[5] = tested on: RAW 264.7 cells; test: Cellular antioxidant activity (CAA); format: cell-based, Murine; conditions: Mus musculus, RAW264.7, macrophages RAW 264.7; average of four repetitions ± standard error of the mean
Method: To evaluate the antioxidant activity of the prepared derivatives and the respective parent compounds, cellular antioxidant activity (CAA) was measured in macrophages. Compared to other in vitro antioxidant assays, this method provides partial information about the uptake and metabolism of the compounds, because, in this assay, they must first enter the cell to exert antioxidant activity.[31] […] Derivatization of quercetin at C-8 with 4-fluoroaniline (5) increased the antioxidant activity of quercetin by 1.7-fold. […] The concentration of these derivatives required to halve the cellular radicals decreased 1.5-fold compared to luteolin.
Cellular antioxidant capacity was evaluated as previously described.[31],[39] Briefly, 100 μL of RAW 264.7 cells with a density corresponding to 1 × 10^6 cells/mL were split into 96-well plates. After 24 h, cells were washed with PBS, and DMEM supplemented with DCFH-DA (0.0125 mg/mL) was added to each well together with the tested samples in the concentration range of 1.5–200 μM. After 1 h incubation in a CO2 incubator, the medium was replaced with AAPH solution (0.16 mg/mL in PBS), and fluorescence was immediately recorded (ex./em. 485/540 nm) for 2 h in 5 min intervals.

[6] = tested on: tumor necrosis factor (TNF-α) production by RAW 264.7 stimulated by LPS; test: Anti-inflammatory activity: TNF-α production by LPS-stimulated macrophages; format: cell-based, Murine; conditions: Mus musculus, RAW264.7; LPS-stimulated RAW 264.7; average of four repetitions ± SEM; read-out: TNFα production IC50
Method: (§6) The anti-inflammatory activity of flavonoids was evaluated as their ability to decrease the production of signaling molecules that mediate inflammation, such as nitric oxide (NO), tumor necrosis factor (TNF-α), and interleukin 6 (IL-6), in LPS-stimulated macrophages.
(§7) The anti-inflammatory activity of the tested flavonoids was determined as the ability to reduce the production of nitric oxide (NO), tumor necrosis factor (TNF-α), and interleukin 6 (IL-6) by RAW 264.7 stimulated by LPS, as previously described.[39],[40] Briefly, 1 × 10^6 cells/mL was seeded into the 96-well plate (100 μL/well). After 48 h, LPS (100 ng/mL) and the samples (3–100 μM) were added to the MEM medium. After 24 h, the medium was mixed with Griess reagent (0.04 g/mL) at a 1:1 ratio. The absorbance was measured after 15 min at 540 nm. Cell viability was determined using the resazurin assay.
(§8) To determine TNF-α levels, cells were precultivated with the tested compounds for 24 h. After 2 h of incubation with LPS, the medium was diluted 1:10 with ELISA diluent. To determine the level of IL-6, cells were cultivated for 6 h with LPS and the tested compounds. Cytokine production was determined using an uncoated ELISA performed according to the manufacturer’s instructions.

[7] = tested on: nitric oxide (NO) production by RAW 264.7 stimulated by LPS; test: Anti-inflammatory activity: NO production by LPS-stimulated macrophages; format: cell-based, Murine; conditions: Mus musculus, RAW264.7; LPS-stimulated RAW 264.7; average of four repetitions ± SEM
Method: as §6, §7

[8] = tested on: interleukin 6 (IL-6) production by RAW 264.7 stimulated by LPS; test: Anti-inflammatory activity: IL-6 production by LPS-stimulated macrophages; format: cell-based, Murine; conditions: Mus musculus, RAW264.7; LPS-stimulated RAW 264.7; average of four repetitions ± SEM
Method: as §6, §7, §8

[9] = tested on: S. aureus CCM 4223; test: Antibacterial activity, antibiotic-sensitive strain; format: cell-based; conditions: Staphylococcus aureus, CCM4223, three repetitions ± SEM
[10] = tested on: Staphylococcus aureus MRSA 9; test: Modulation of antibiotic-resistant phenotype (flavonoid plus breakpoint concentration of antibiotic); format: cell-based; conditions: for minimum inhibitory concentration (MIC) in the presence of erythromycin: erythromycin at breakpoint concentration 1 mg/L; for minimum inhibitory concentration (MIC) in the presence of erythromycin / minimum inhibitory concentration (MIC) in the presence of gentamicin: MIC determined as IC70, three repetitions ± SEM; for minimum inhibitory concentration (MIC) in the presence of gentamicin: gentamicin at breakpoint concentration 1 mg/L
Method: as §3, §4, §5

[11] = tested on: MRSA 3596; test: Mode of antimicrobial action with erythromycin or gentamicin, ermA- and aadD-positive strain; format: cell-based, S. aureus; conditions: MRSA 3596 (aadD)
Description: Erythromycin is a macrolide antibiotic that inhibits proteosynthesis by binding to the 50S subunit of the ribosome. In Staphylococcus species, resistance to erythromycin is associated with the presence of methyltransferases (encoded by erm genes) that alter the ribosomal target site. Another typical mechanism of resistance to erythromycin is the presence of an ATP-dependent efflux pump encoded by the msr(A) gene or a major facilitator superfamily (MFS) pump encoded by the lmrS gene. Both efflux pumps reduce the concentration of erythromycin in the cell below the therapeutic dose by transporting it across the membrane to the extracellular space. Another erythromycin resistance gene is the mph(C) gene, the product of which is a phosphotransferase that alters the structure of macrolide antibiotics. To elucidate the mechanism of erythromycin resistance modulation in S. aureus, further tests were performed with the strains MRSA 331 and MRSA 3596, which inactivate erythromycin via a single mechanism (ermC and ermA, respectively). […] Therefore, if the activity was not strain-specific, it would be necessary to consider the effect of the derivatives on this pump (Table 3).
(§9) Among the mechanisms of resistance to gentamicin previously described in S. aureus, the presence of enzymes that alter the structure of aminoglycosides is crucial. These enzymes can transfer nucleotides, phosphates, or acetyls to various −OH or −NH2 groups of gentamicin, preventing its subsequent interaction with the cellular target, i.e., the 30S ribosomal subunit. The bifunctional aminoglycoside-modifying enzyme with acetylation and phosphotransferase activities encoded by the gene aac(6’)/aph(2’), 4′,4″ adenyltransferase encoded by the aadD gene, and aminoglycoside O-phosphotransferase encoded by the gene aph(3′) are the most important.[37] […] For this reason, further testing continued using strains MRSA 3596 and MRSA 1584, which inactivate gentamicin only by a single mechanism (aadD and aac(6’)-aph(2’’), respectively).
as §4, §5

[12] = tested on: MRSA 1584; test: Mode of antimicrobial action with gentamicin, aac(6')/aph(2')-positive strain; format: cell-based, Staphylococcus aureus
Description: as §9, §4, §5

| Structure (SMILES) | IC50 ([2]; Homo sapiens, Fibroblast, 72 h) | IC50 [5] | IC50 [6] | IC50 [7] | IC50 [4] | IC50 [8] | IC50 [9] | IC50 ([3]; Homo sapiens, HaCaT, 72 h) | minimum inhibitory concentration (MIC) in the presence of erythromycin [10] | minimum inhibitory concentration (MIC) in the presence of gentamicin [10] | also measured |
| --- | --- | --- | --- | --- | --- | --- | --- | --- | --- | --- | --- |
| N#CC(C#N)=NNc1cccc(Cl)c1 [CCCP, carbonyl cyanide 3-chlorophenylhydrazone, reference compound] |  |  |  |  |  |  |  |  |  |  | efflux inhibition (ethidium bromide accumulation), in words [1]: increases the accumulation of ethidium bromide |
| COc1cccc2c1C(=O)c1c(O)c3c(c(O)c1C2=O)C[C@@](O)(C(=O)CO)C[C@@H]3O[C@H]1C[C@H](N)[C@H](O)[C@H](C)O1 [Doxorubicin, reference compound] |  |  |  |  |  |  |  |  |  |  | IC50 ([2]; listed as doxorubicin): < 1 µM; IC50 [2]: 0.19 ± 0.01 µM; IC50 ([3]; listed as doxorubicin): < 1 µM; IC50 [3]: 0.42 ± 0.03 µM |
| CC[C@H]1OC(=O)[C@H](C)[C@@H](O[C@H]2C[C@@](C)(OC)[C@@H](O)[C@H](C)O2)[C@H](C)[C@@H](O[C@@H]2O[C@H](C)C[C@H](N(C)C)[C@H]2O)[C@](C)(O)C[C@@H](C)C(=O)[C@H](C)[C@@H](O)[C@]1(C)O [Erythromycin, reference compound] |  |  |  |  |  |  |  |  |  |  | effect of the antibiotic alone on the multidrug-resistant clinical strain [4]: did not affect |
| COc1ccc(Nc2c(O)cc(O)c3c(=O)c(O)c(-c4ccc(O)c(O)c4)oc23)cc1 [compound 6, 2-(3,4-Dihydroxyphenyl)-8-(4-methoxyanilino)-3,5,7-trihydroxy-4H–1-benzopyran-4-one] | 79.9 ± 1.5 µM | 7.5 ± 0.7 µM | > 50 µM | 52.3 ± 2.3 µM | 138 ± 1.2 µM | 32.3 ± 2.3 µM | 44 ± 0.1 µM | 45.2 ± 3.5 µM | >200 µM | >200 ^note 2 μM | inhibition at 200 µM ([10]; Staphylococcus aureus, MRSA, with gentamicin 1 mg/L, maximum concentration used (200 μM), read-out: maximum concentration used inhibited bacterial growth to): 50.7% |
| O=c1c(O)c(-c2ccc(O)c(O)c2)oc2c(Nc3ccccc3)c(O)cc(O)c12 [compound 7, 2-(3,4-Dihydroxyphenyl)-8-(anilino)-3,5,7-trihydroxy-4H–1-benzopyran-4-one] | 115 ± 1.2 µM | 5.5 ± 0.4 µM | > 100 µM | 34.4 ± 0.2 µM | 70 ± 2 µM | 12.9 ± 0.2 µM | 32.7 ± 0.7 µM | 102 ± 1.5 µM | >200 µM | 43.8 ± 1.6 µM | MIC, Gentamicin [1 mg/L] yes ([11]; with gentamicin 1 mg/L): > 200 µM; MIC ([11]; Staphylococcus aureus, 24 h, read-out: MIC, Gentamicin [1 mg/L] no, without gentamicin, Table S6): > 200 µM; effect (mode of action with gentamicin) ([12]; MRSA 1584): indifferent (> 1 to < 2 indicates indifference); MIC, Gentamicin [1 mg/L] yes ([12]; MRSA 1584 (aac(6')/aph(2')), with gentamicin 1 mg/L): 31.9 ± 2.5 µM (≈ 12.5 µg/mL); FIC (Fractional Inhibitory Concentration Index) ([12]; MRSA 1584, with gentamicin): 1.07 ± 0.13; MIC ([12]; Staphylococcus aureus, 24 h, read-out: MIC, Gentamicin [1 mg/L] no, MRSA 1584, without gentamicin): 29.9 ± 1.2 µM (≈ 11.8 µg/mL) |
| COc1cc(Nc2c(O)cc(O)c3c(=O)c(O)c(-c4ccc(O)c(O)c4)oc23)cc(OC)c1 [compound 9, 2-(3,4-Dihydroxyphenyl)-8-(3,5-dimethoxyanilino)-3,5,7-trihydroxy-4H–1-benzopyran-4-one] | 76 ± 3 µM | 5.7 ± 1 µM | > 50 µM | 26.6 ± 0.4 µM | > 200 µM | > 50 µM | > 200 µM | 56.9 ± 1.9 µM | >200 µM | >200 µM |  |
| CNC(C)C1CCC(N)C(OC2C(N)CC(N)C(OC3OCC(C)(O)C(NC)C3O)C2O)O1 (centres unmarked) [gentamicin, reference compound] |  |  |  |  |  |  |  |  |  |  | effect of the antibiotic alone on the multidrug-resistant clinical strain [4]: did not affect |
